Experimental data published in patent US20100063047A1 (KALYPSYS, INC., priority 2008, published 2010).

How the values were obtained:
[1] = target: T1, human H4 (Homo sapiens, UniProt Q9H3N8); assay: In vitro histamine H4 receptor cell-based aequorin bioluminescence antagonist assay; settings: CHO-K1 cells expressing human H4, aequorin and Gα16; histamine at EC80
T1 construct: host or cells: CHO-K1, also expressing mitochondrion-targeted aequorin and human Gα16
Method: In vitro Histamine Receptor Cell-Based Assays
The cell-based assays utilize an aequorin dependent bioluminescence signal. Doubly-transfected, stable CHO—K1 cell lines expressing human H1 or H4, mitochondrion-targeted aequorin, and (H4 only) human G protein Gα16 are obtained from Perkin-Elmer. Cells are maintained in F12 (Ham's) growth medium, containing 10% (vol./vol.) fetal bovine serum, penicillin (100 IU/mL), streptomycin (0.1 mg/mL), zeocin (0.25 mg/mL) and geneticin (0.40 mg/mL). Cell media components are from Invitrogen, Inc. One day prior to assay, the growth medium is replaced with the same, excluding zeocin and geneticin.
For assay preparation, growth medium is aspirated, and cells are rinsed with calcium-free, magnesium-free phosphate-buffered saline, followed by two to three minute incubation in Versene (Invitrogen, Inc.) at 37° C. Assay medium (DMEM:F12 [50:50], phenol-red free, containing 1 mg/mL protease-free bovine serum albumin) is added to collect the released cells, which are then centrifuged. The cell pellet is re-suspended in assay medium, centrifuged once more, and re-suspended in assay medium to a final density of 5×10^6 cells/mL. Coelenterazine-h dye (500 μM in ethanol) is added to a final concentration of 5 μM, and mixed immediately. The conical tube containing the cells is then wrapped with foil to protect the light-sensitive dye. The cells are incubated for four hours further at room temperature (approximately 21° C.) with end-over-end rotation to keep them in suspension.
Just before assay, the dye-loaded cells are diluted to 0.75×10^6 cells/mL (H1 receptor) or 1.5×10^6 cells/mL (H4 receptor) with additional assay medium. Cells are dispensed to 1536 well micro-titer plates at 3 μL/well. To assay receptor antagonism, 60 nl of 100× concentration test compounds in 100% dimethyl sulfoxide (DMSO) are dispensed to the wells, one compound per well, by passive pin transfer, and the plates are incubated for 15 minutes at room temperature. […] The pipette dispenses 3 μL/well of agonist (histamine, at twice the final concentration, where final concentration is a previously determined EC80) in assay medium, with concurrent bioluminescence detection. Agonist activity of test compounds is excluded by separate assays that measure response to test compounds immediately, without added histamine agonist.
CCD image capture on the Lumilux includes a 5 second baseline read prior to agonist addition, and generally a 40 second read per plate after agonist addition. A decrease in bioluminescence signal (measured either as area-under-the-curve, or maximum signal amplitude minus minimum signal amplitude) correlates with receptor antagonism in a dose dependent manner. The negative control is DMSO lacking any test compound. For antagonist assays, the positive controls are diphenhydramine (2-Diphenylmethoxy-N,N-dimethylethylamine, 10 μM final concentration, H1 receptor) or JNJ7777120 (1-[(5-Chloro-1H-indol-2-yl)carbonyl]-4-methyl-piperazine, 10 μM final concentration, H4 receptor). Efficacy is measured as a percentage of positive control activity.

[2] = target: T2, human H1 (Homo sapiens, UniProt P35367); assay: In vitro histamine H1 receptor cell-based aequorin bioluminescence antagonist assay; settings: CHO-K1 cells expressing human H1 and aequorin; histamine at EC80; read-out: H1 Antagonist EC50
T2 construct: host or cells: CHO-K1, also expressing mitochondrion-targeted aequorin
In short: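 CHO-K1 cells stably expressing human H1 or H4 plus mitochondrial aequorin (H4 also with Gα16), loaded with 5 μM coelenterazine-h for 4 h at ~21 °C. Compounds preincubated 15 min at room temperature, then histamine at EC80 added.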

T2 sequence (P35367 whole entry): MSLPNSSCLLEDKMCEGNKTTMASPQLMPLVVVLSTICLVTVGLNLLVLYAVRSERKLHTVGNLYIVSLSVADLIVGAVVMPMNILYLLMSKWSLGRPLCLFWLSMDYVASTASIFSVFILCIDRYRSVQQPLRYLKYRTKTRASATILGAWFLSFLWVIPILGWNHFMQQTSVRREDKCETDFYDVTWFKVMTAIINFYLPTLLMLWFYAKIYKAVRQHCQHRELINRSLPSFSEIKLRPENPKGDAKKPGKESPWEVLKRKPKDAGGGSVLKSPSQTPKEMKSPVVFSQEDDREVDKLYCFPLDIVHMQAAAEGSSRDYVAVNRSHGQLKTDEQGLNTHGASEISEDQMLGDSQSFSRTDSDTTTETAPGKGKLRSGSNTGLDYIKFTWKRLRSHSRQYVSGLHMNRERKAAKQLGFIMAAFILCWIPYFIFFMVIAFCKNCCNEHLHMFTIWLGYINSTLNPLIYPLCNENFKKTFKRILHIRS

Row | EC50 [1] | EC50 [2] | Structure (SMILES)
1 | > 10 µM | > 10 µM | Cc1csc2ncnc(N(C)CC(C)C)c12 [Example 185, N,5-dimethyl-N-(2-methylpropyl)thieno[2,3-d]pyrimidin-4-amine]
2 | > 10 µM | > 10 µM | Cc1csc2ncnc(NCCCCO)c12 [Example 74, 4-({5-methylthieno[2,3-d]pyrimidin-4-yl}amino)butan-1-ol]
3 | > 10 µM | > 10 µM | Cc1csc2ncnc(NCC(=O)c3ccccc3)c12 [Example 161, 2-({5-methylthieno[2,3-d]pyrimidin-4-yl}amino)-1-phenylethan-1-one]
4 | > 10 µM | > 10 µM | Cc1csc2ncnc(N3CCCN(Cc4ccccc4)CC3)c12 [Example 242, 1-benzyl-4-{5-methylthieno[2,3-d]pyrimidin-4-yl}-1,4-diazepane]
5 | > 10 µM | > 10 µM | Cc1csc2ncnc(N3CCN(c4cccc(C(F)(F)F)c4)CC3)c12 [Example 288, 1-{5-methylthieno[2,3-d]pyrimidin-4-yl}-4-[3-(trifluoromethyl)phenyl]piperazine]
6 | > 10 µM |  | Cc1ccc(C)c(N2CCN(c3ncnc4scc(C)c34)CC2)c1 [Example 259, 1-(2,5-dimethylphenyl)-4-{5-methylthieno[2,3-d]pyrimidin-4-yl}piperazine]
7 | > 10 µM | > 10 µM | Cc1csc2ncnc(NC(C)Cc3ccncc3)c12 (stereo not drawn) [Example 120, 5-methyl-N-[1-(pyridin-4-yl)propan-2-yl]thieno[2,3-d]pyrimidin-4-amine]
8 | > 10 µM | > 10 µM | Cc1csc2ncnc(N3CCN(c4ccc(C(C)(C)C)cc4)CC3)c12 [Example 284, 1-(4-tert-butylphenyl)-4-{5-methylthieno[2,3-d]pyrimidin-4-yl}piperazine]
9 | > 10 µM | > 10 µM | Cc1csc2ncnc(N(Cc3cccnc3)Cc3cccnc3)c12 [Example 268, 5-methyl-N,N-bis(pyridin-3-ylmethyl)thieno[2,3-d]pyrimidin-4-amine]
10 | > 10 µM | > 10 µM | Cc1csc2ncnc(C(=O)NCc3ccc(Cl)cc3)c12 [Example 34, N-(4-chlorobenzyl)-5-methylthieno[2,3-d]pyrimidine-4-carboxamide]
11 | > 10 µM | > 10 µM | Cc1cnc(CNc2ncnc3scc(C)c23)cn1 [Example 101, 5-methyl-N-[(5-methylpyrazin-2-yl)methyl]thieno[2,3-d]pyrimidin-4-amine]
12 | > 10 µM | > 10 µM | Cc1csc2ncnc(NN3CCOCC3)c12 [Example 81, N-{5-methylthieno[2,3-d]pyrimidin-4-yl}morpholin-4-amine]
13 | > 10 µM | > 10 µM | Cc1csc2ncnc(N(C)C[C@H](O)c3ccc(O)c(O)c3)c12 [Example 248, 4-[(1R)-1-hydroxy-2-[methyl({5-methylthieno[2,3-d]pyrimidin-4-yl})amino]ethyl]benzene-1,2-diol]
14 | > 10 µM |  | c1ccc(CN2CCN(c3ncnc4sc5c(c34)CCCC5)CC2)cc1 [Example 12, 4-(4-benzylpiperazin-1-yl)-5,6-tetrahydrobenzo[b]thiophenethieno[2,3-d]pyrimidine]
15 | > 10 µM | > 10 µM | Cc1csc2ncnc(NC3CCCc4ccccc43)c12 (stereo not drawn) [Example 138, 5-methyl-N-(1,2,3,4-tetrahydronaphthalen-1-yl)thieno[2,3-d]pyrimidin-4-amine]
16 | > 10 µM | > 10 µM | COc1cc(CN(C)c2ncnc3scc(C)c23)cc(OC)c1OC [Example 276, N,5-dimethyl-N-[(3,4,5-trimethoxyphenyl)methyl]thieno[2,3-d]pyrimidin-4-amine]
17 | > 10 µM | > 10 µM | Cc1ccc(Cl)cc1N1CCN(c2ncnc3scc(C)c23)CC1 [Example 275, 1-(5-chloro-2-methylphenyl)-4-{5-methylthieno[2,3-d]pyrimidin-4-yl}piperazine]

Row | EC50 [1] | EC50 [2] | Structure (SMILES)
18 | > 10 µM | > 10 µM | CCNc1ncnc2scc(C)c12 [Example 50, N-ethyl-5-methylthieno[2,3-d]pyrimidin-4-amine]
19 | > 10 µM | > 10 µM | C#CCNc1ncnc2scc(C)c12 [Example 51, 5-methyl-N-(prop-2-yn-1-yl)thieno[2,3-d]pyrimidin-4-amine]
20 | > 10 µM | > 10 µM | Cc1csc2ncnc(N3C(C)CCCC3C)c12 (stereo not drawn) [Example 201, 2,6-dimethyl-1-{5-methylthieno[2,3-d]pyrimidin-4-yl}piperidine]
21 | > 10 µM | > 10 µM | Cc1csc2ncnc(N(CCC#N)Cc3ccccc3)c12 [Example 153, 3-[benzyl({5-methylthieno[2,3-d]pyrimidin-4-yl})amino]propanenitrile]
22 | > 10 µM | > 10 µM | COc1ccc(CNc2ncnc3scc(C)c23)cc1O [Example 171, 2-methoxy-5-[({5-methylthieno[2,3-d]pyrimidin-4-yl}amino)methyl]phenol]
23 | > 10 µM | > 10 µM | CCN(c1ncnc2scc(C)c12)C(C)C [Example 186, N-ethyl-5-methyl-N-(propan-2-yl)thieno[2,3-d]pyrimidin-4-amine]
24 | > 10 µM | > 10 µM | CCN(c1ncnc2scc(C)c12)C(Cc1ccccc1)c1ccco1 (stereo not drawn) [Example 282, N-ethyl-N-[1-(furan-2-yl)-2-phenylethyl]-5-methylthieno[2,3-d]pyrimidin-4-amine]
25 | > 10 µM | > 10 µM | CCC(C)Nc1ncnc2scc(C)c12 (stereo not drawn) [Example 60, N-(butan-2-yl)-5-methylthieno[2,3-d]pyrimidin-4-amine]
26 | > 10 µM | > 10 µM | Cc1csc2ncnc(NC3CC3)c12 [Example 53, N-cyclopropyl-5-methylthieno[2,3-d]pyrimidin-4-amine]
27 | > 10 µM | > 10 µM | C#CCN(C)c1ncnc2scc(C)c12 [Example 180, N,5-dimethyl-N-(prop-2-yn-1-yl)thieno[2,3-d]pyrimidin-4-amine]
28 | > 10 µM | > 10 µM | Cc1csc2ncnc(N3CCN(C(=O)OC(C)(C)C)C[C@H]3CO)c12 [Example 283, tert-butyl (3S)-3-(hydroxymethyl)-4-{5-methylthieno[2,3-d]pyrimidin-4-yl}piperazine-1-carboxylate]
29 | > 10 µM | > 10 µM | Cc1csc2ncnc(NCCN(C)C)c12 [Example 70, dimethyl[2-({5-methylthieno[2,3-d]pyrimidin-4-yl}amino)ethyl]amine]
30 | > 10 µM | > 10 µM | Cc1csc2ncnc(N3CCN(c4ccccc4)CC3)c12 [Example 233, 1-{5-methylthieno[2,3-d]pyrimidin-4-yl}-4-phenylpiperazine]
31 | > 10 µM |  | Cc1csc2ncnc(N3CCN(c4ccc(C#N)cn4)CC3)c12 [Example 253, 6-(4-{5-methylthieno[2,3-d]pyrimidin-4-yl}piperazin-1-yl)pyridine-3-carbonitrile]
32 | > 10 µM |  | Cc1csc2ncnc(N(C)CCc3ccccn3)c12 [Example 220, N,5-dimethyl-N-[2-(pyridin-2-yl)ethyl]thieno[2,3-d]pyrimidin-4-amine]
33 | > 10 µM |  | Cc1csc2ncnc(N3CCC(N(C)C)C3)c12 (stereo not drawn) [Example 202, N,N-dimethyl-1-{5-methylthieno[2,3-d]pyrimidin-4-yl}pyrrolidin-3-amine]
34 | > 10 µM |  | Cc1csc2ncnc(N3CCN(c4ccc(Cl)cc4)CC3)c12 [Example 266, 1-(4-chlorophenyl)-4-{5-methylthieno[2,3-d]pyrimidin-4-yl}piperazine]

Row | Structure (SMILES) | EC50 [1] | EC50 [2]
35 | CN1CCC(N(C)c2ncnc3scc(-c4ccc(Br)cc4)c23)CC1 [Example 13, 5-(4-bromophenyl)-N-methyl-N-(1-methylpiperidin-4-yl)thieno[2,3-d]pyrimidin-4-amine] | > 10 µM | 
